Earlier results in article PMC9516332 (Frontiers in Oncology, 2022).
Read-outs that look alike come from different tables or passages of the source.

Tests used:
Conditions in all cases: cited from earlier work
[1] = target: T1, panel of 255 wild-type kinases (Homo sapiens, UniProt O14757)
T1 sequence (O14757 1-476): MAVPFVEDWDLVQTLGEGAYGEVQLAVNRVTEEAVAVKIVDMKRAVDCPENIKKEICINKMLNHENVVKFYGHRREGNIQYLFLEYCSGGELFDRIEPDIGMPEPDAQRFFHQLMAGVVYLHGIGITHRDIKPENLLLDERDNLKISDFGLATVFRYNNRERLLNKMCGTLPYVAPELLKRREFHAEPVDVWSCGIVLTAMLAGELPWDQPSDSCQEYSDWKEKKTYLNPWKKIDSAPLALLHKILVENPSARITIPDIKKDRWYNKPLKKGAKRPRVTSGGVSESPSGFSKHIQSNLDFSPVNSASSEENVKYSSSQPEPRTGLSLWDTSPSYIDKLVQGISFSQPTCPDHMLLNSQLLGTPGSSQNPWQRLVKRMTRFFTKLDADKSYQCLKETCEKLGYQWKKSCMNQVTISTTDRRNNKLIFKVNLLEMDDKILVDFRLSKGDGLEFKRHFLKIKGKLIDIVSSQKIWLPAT

[2] = target: panel of 255 wild-type kinases (Homo sapiens, UniProt Q9UM73)
[3] = target: panel of 255 wild-type kinases (Homo sapiens, UniProt P49841)
[4] = target: panel of 255 wild-type kinases (Homo sapiens, UniProt P08581)
[5] = target: panel of 255 wild-type kinases (Homo sapiens, UniProt Q13554)
[6] = target: T2, panel of 255 wild-type kinases (Homo sapiens, UniProt Q8IW41)
T2 sequence (Q8IW41 1-473): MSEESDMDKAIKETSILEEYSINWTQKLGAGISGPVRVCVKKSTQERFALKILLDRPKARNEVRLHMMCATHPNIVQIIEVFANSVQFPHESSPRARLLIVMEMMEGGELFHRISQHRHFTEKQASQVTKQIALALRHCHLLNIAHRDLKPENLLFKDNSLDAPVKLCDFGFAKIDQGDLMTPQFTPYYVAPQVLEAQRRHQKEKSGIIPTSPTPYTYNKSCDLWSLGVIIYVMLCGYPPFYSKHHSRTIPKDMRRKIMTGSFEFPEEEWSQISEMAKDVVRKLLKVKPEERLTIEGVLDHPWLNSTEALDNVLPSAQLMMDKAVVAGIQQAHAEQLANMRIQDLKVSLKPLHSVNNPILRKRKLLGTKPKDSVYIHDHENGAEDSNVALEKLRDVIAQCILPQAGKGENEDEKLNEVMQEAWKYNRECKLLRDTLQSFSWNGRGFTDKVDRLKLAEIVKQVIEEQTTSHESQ

[7] = target: T3, panel of 255 wild-type kinases (Homo sapiens, UniProt O43781)
T3 sequence (O43781 1-588): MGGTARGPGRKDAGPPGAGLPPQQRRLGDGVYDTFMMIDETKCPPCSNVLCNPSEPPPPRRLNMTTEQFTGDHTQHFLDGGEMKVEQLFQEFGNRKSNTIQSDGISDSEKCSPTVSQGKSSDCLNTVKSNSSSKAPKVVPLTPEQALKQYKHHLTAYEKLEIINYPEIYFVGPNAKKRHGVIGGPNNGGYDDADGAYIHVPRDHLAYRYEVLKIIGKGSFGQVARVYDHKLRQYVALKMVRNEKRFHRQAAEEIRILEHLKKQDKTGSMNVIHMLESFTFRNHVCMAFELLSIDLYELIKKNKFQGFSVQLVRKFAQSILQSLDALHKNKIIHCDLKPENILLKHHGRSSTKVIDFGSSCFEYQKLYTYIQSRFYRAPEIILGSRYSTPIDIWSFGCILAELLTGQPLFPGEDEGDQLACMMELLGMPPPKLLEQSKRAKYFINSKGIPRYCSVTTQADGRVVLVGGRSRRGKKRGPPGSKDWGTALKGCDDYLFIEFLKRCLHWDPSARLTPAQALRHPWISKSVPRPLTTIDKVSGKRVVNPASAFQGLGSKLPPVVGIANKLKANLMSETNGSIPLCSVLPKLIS

[8] = target: panel of 255 wild-type kinases (Homo sapiens, UniProt P53350)
[9] = target: panel of 255 wild-type kinases (Homo sapiens, UniProt P43405)
[10] = target: panel of 255 wild-type kinases (Homo sapiens, UniProt Q06187)
[11] = target: panel of 255 wild-type kinases (Homo sapiens, UniProt Q04759)
[12] = CHK1 kinase assay, 1 µmol/L single concentration, ref DOI: 10.1158/1535-7163.MCT-18-0877
[13] = ALK kinase assay, 1 µmol/L single concentration, ref DOI: 10.1158/1535-7163.MCT-18-0877
[14] = kinase GSK3β, 1 µmol/L single concentration, ref DOI: 10.1158/1535-7163.MCT-18-0877
[15] = MET, 1 µmol/L single concentration, ref DOI: 10.1158/1535-7163.MCT-18-0877
[16] = CaMK2β kinase assay, 1 µmol/L single concentration, ref DOI: 10.1158/1535-7163.MCT-18-0877
[17] = MAPKAPK5, 1 µmol/L single concentration, ref DOI: 10.1158/1535-7163.MCT-18-0877
[18] = kinase DYRK3, 1 µmol/L single concentration, ref DOI: 10.1158/1535-7163.MCT-18-0877
[19] = kinase PLK1, 1 µmol/L single concentration, ref DOI: 10.1158/1535-7163.MCT-18-0877
[20] = kinase SYK, 1 µmol/L single concentration, ref DOI: 10.1158/1535-7163.MCT-18-0877
[21] = BTK kinase assay, 1 µmol/L single concentration, ref DOI: 10.1158/1535-7163.MCT-18-0877
[22] = kinase PKCθ, 1 µmol/L single concentration, ref DOI: 10.1158/1535-7163.MCT-18-0877
[23] = kinase DYRK3, 1 µmol/L single concentration, ref DOI: 10.1371/journal.pone.0092146
[24] = kinase PLK1, 1 µmol/L single concentration, ref DOI: 10.1371/journal.pone.0092146

Compound | %-inhibition CHK1 [1, 12] | %-inhibition ALK [2, 13] | %-inhibition at 1 µmol/L, GSK3β [3, 14] | %-inhibition, MET [4, 15] | %-inhibition CaMK2β [5, 16] | %-inhibition, MAPKAPK5 [6, 17] | %-inhibition at 1 µmol/L, DYRK3 [7, 18] | %-inhibition at 1 µmol/L, PLK1 [8, 19] | %-inhibition at 1 µmol/L, SYK [9, 20] | %-inhibition BTK [10, 21] | %-inhibition at 1 µmol/L, PKCθ [11, 22] | other results
CC#CC(=O)N1CCC[C@H]1c1nc(-c2ccc(C(=O)Nc3ccccn3)cc2)c2c(N)nccn12 [acalabrutinib] | -7% | 5.27% | -2.39% | 4% | -1.09% | -1.87% | 0.353% | -2.57% | -19% | 95% | -8% | 
CCc1cc2c(cc1N1CCC(N3CCOCC3)CC1)C(C)(C)c1[nH]c3cc(C#N)ccc3c1C2=O [alectinib] | 0.288% |  | 2.37% | 8% | 2.14% | -2.38% | 8.44% | -1.76% | -9% | 4.39% | -2% | 
COc1cc(N2CCC(N3CCN(C)CC3)CC2)ccc1Nc1ncc(Cl)c(Nc2ccccc2P(C)(C)=O)n1 [brigatinib] |  |  |  |  |  |  |  |  |  |  |  | %-inhibition CHK1 [1]: 96%; %-inhibition ALK [2]: 100%; %-inhibition at 1 µmol/L, GSK3β [3]: -1.81%; %-inhibition, MET [4]: 41%; %-inhibition CaMK2β [5]: 64%; %-inhibition, MAPKAPK5 [6]: 3.41%; %-inhibition at 1 µmol/L, DYRK3 [7]: 3.23%; %-inhibition at 1 µmol/L, PLK1 [8]: 49%; %-inhibition at 1 µmol/L, SYK [9]: 68%; %-inhibition BTK [10]: 54%; %-inhibition at 1 µmol/L, PKCθ [11]: 29%
Cc1cc(Nc2ncc(Cl)c(Nc3ccccc3S(=O)(=O)C(C)C)n2)c(OC(C)C)cc1C1CCNCC1 [ceritinib] | 1.32% | 99% | -2.5% | 16% | 23% | -2.68% | -2.12% |  | 5% | -1.88% | -0.708% | 
O=C(c1ccc(F)c(F)c1Nc1ccc(I)cc1F)N1CC(O)([C@@H]2CCCCN2)C1 [cobimetinib] | 9% | 5% | -2.44% | 7% | -0.487% | -1% | -3.62% | -1.08% | -23% | 4% | -4.34% | 
C[C@@H](Oc1cc(-c2cnn(C3CCNCC3)c2)cnc1N)c1c(Cl)ccc(F)c1Cl [crizotinib] |  |  |  |  |  |  |  |  |  |  |  | %-inhibition CHK1 ([1]; CHK1 kinase assay, 1 µmol/L single concentration, ref DOI: 10.1371/journal.pone.0092146): 10%; %-inhibition at 1 µmol/L, GSK3β ([3]; kinase GSK3β, 1 µmol/L single concentration, ref DOI: 10.1371/journal.pone.0092146): -2.11%; %-inhibition, MAPKAPK5 ([6]; MAPKAPK5, 1 µmol/L single concentration, ref DOI: 10.1371/journal.pone.0092146): -3.19%; %-inhibition at 1 µmol/L, DYRK3 [7, 23]: 14%; %-inhibition at 1 µmol/L, PLK1 [8, 24]: -3%; %-inhibition at 1 µmol/L, PKCθ ([11]; kinase PKCθ, 1 µmol/L single concentration, ref DOI: 10.1371/journal.pone.0092146): -3%
CC(C)(C)c1nc(-c2cccc(NS(=O)(=O)c3c(F)cccc3F)c2F)c(-c2ccnc(N)n2)s1 [dabrafenib] |  |  |  |  |  |  |  |  |  |  |  | %-inhibition, MET ([4]; MET, 1 µmol/L single concentration, ref DOI: 10.1371/journal.pone.0092146): 27%; %-inhibition CaMK2β ([5]; CaMK2β kinase assay, 1 µmol/L single concentration, ref DOI: 10.1371/journal.pone.0092146): -0.277%; %-inhibition at 1 µmol/L, DYRK3 [7, 23]: -5.68%; %-inhibition at 1 µmol/L, PLK1 [8, 24]: -9%; %-inhibition at 1 µmol/L, SYK ([9]; kinase SYK, 1 µmol/L single concentration, ref DOI: 10.1371/journal.pone.0092146): 37%; %-inhibition BTK ([10]; BTK kinase assay, 1 µmol/L single concentration, ref DOI: 10.1371/journal.pone.0092146): 60%
C=CC(=O)N1CCC[C@@H](n2nc(-c3ccc(Oc4ccccc4)cc3)c3c(N)ncnc32)C1 [ibrutinib] | 10% | 5.45% | -4% | 12% | -2.56% | -2.44% | -4% | -2.28% | -20% |  | -1.13% | 
CO[C@@H]1[C@H](N(C)C(=O)c2ccccc2)C[C@H]2O[C@]1(C)n1c3ccccc3c3c4c(c5c6ccccc6n2c5c31)C(=O)NC4 [midostaurin] | 68% | 87% |  | 45% |  | -2% |  | 6% | 97% | 59% |  | 
C=CC(=O)Nc1cc(Nc2nccc(-c3cn(C)c4ccccc34)n2)c(OC)cc1N(C)CCN(C)C [osimertinib] | 11% | 99% | -4% | 12% | 5% | 0.814% | 21% | -0.476% | -38% | 84% | 10% | 
